Source: US6803195B1, “Facile detection of cancer and cancer risk based on level of coordination between alleles” (Ramot At Tel-Aviv University Ltd., priority 1999, dated 2004)

What was measured:
Format in all cases: cell-based, human
[1] = test system: lymphocytes of prostate cancer patients (CAP) and control subjects (BPH); test: FISH determination of allelic loss in CAP and BPH lymphocytes with and without 5-azacytidine (Example 7); details: CAP samples 1-6 and BPH samples 1-6, presence vs absence of AZA
Procedure: Each sample was set up for short-term culturing in F10 medium supplemented with 20% fetal calf serum (FCS), 3% phytohemagglutinin (PHA), 0.2% heparin, and 1% antibiotics (a standard solution of penicillin and streptomycin). Cultures were incubated at 37° C. for 72 hours and then colchicine (final concentration 0.1 μg/ml) was added to the culture for one hour, followed by hypotonic treatment (0.075 M KC1 at 37° C. for 15 minutes) and four washes each with a fresh cold 3:1 methanol: acetic acid solution. The cell suspensions were stored at −20° C. until used for fluorescence in situ hybridization (FISH). […]
Slides were analyzed blindly on an Olympus BH2 fluorescent microscope, using a triple band-pass filter (Chroma technology). […] For each sample and for each treatment the frequency of SD, SS and DD cells out of the total population of cells containing two fluorescent signals was recorded (for details please see Dotan et al, Genes, Chromosomes & Cancer 27:270-277, 2000). For the determination of allelic losses at least 200 cells from the same preparation used for replication studied were analyzed for each tested sample. […]

[2] = test system: PHA-stimulated lymphocytes of patients suffering from a hematological malignancy; test: FISH replication assay, lymphocytes of hematological cancer patients grown with 5-azacytidine (Example 6); details: for percentage of SD cells following exposure to AZA, mean value: patients' samples 1-15, 72 hours, mean ± standard deviation
Procedure: (§1) Each subject donated five ml of peripheral blood. Cell cultures of PHA-stimulated lymphocytes were set up according to standard protocol (Rooney and Czepulkowsli, 1992). Briefly, 0.5 ml of peripheral blood was introduced into a 15 ml test tube containing 5ml F-10 medium supplemented with 20% fetal calf serum, 0.2% heparin, 1% penicillin/streptomycin antibiotic solution (Biological industries, Israel) and 3% phytohemagglutinin (PHA). In addition, all the 15 samples derived from the hematological patients (samples 1-15) and 15 of the 41 samples derived from non-cancerous subjects (samples 16-30) were also grown in the presence of 10^−7M 5-azacytidine (AZA; Sigman, USA) added to the other ingredients described above.
(§2) After 72 hours at 37° C., colchicine (Sigma, USA) was added to each sample (final concentration of 5×10^−7M for one hour) followed by hypotonic treatment (0.075 M KC1 at 37° C. for 15 minutes) and four washes, each with a fresh cold (−20° C.) 3:1 solution of methanol: acetic acid. The cell suspensions were stored at −20° C. until used for FISH.
(§3) Six diverse loci were tested using directly labeled commercial probes obtained from Vysis: (i) the SNRPN probe (32-190004); (ii) the TP53 probe (32-190006); (iii) the AML1 probe (LSI 21; 32-190002); (iv) the RB1 probe (LSI 13; 32-190001); (v) the α-satellite probe specific for centromere 17 (32-130017, hereafter marked as CEN17); and (vi) the satellite III probe specific for centromere 15 (32-1300015, hereafter marked as CEN15). The SNRPN probe identifies the Prader-Willi/Angelman syndrome region on 15q11-13 and is the most well characterized imprinted region in man (Ozoelik et al 1992). The TP53 probe identifies the p53 gene mapped to […] and is a tumor suppressor gene whose deletion and/or inactivation is implicated in over 50% of all human tumors (Prokocimer et al 1998). The AML1 probe recognizes a gene mapped to chromosome 21q22, which is one of the most frequently translocated genes in human blood malignancy (Look 1997). […] It is located on chromosome 13q14, and encodes the retinoblastoma protein. Both centromere specific probes (CEN17 and CEN15) identify non-coding loci implicated with chromosomal segregation and stability and are usually used for the enumeration of chromosome 17 and 15, respectively. Also the AML1 and RB1 probes, although not identifying centromeric regions, were both approved by the FDA to replace centromere specific probes for the enumeration of chromosomes 21 and 13, respectively.
(§4) A standard protocol was followed, as recommended by Ingen Laboratories (currently Insitus Biotechnologies), with few minor changes. Probes were diluted in Ingen's DenHyb solutions D001 to 400 folds (CEN17 and CEN15) and in D003 to 100 fold (AML1; RB1) or 50 fold (TP53; SNRPN) instead of the hybridization solution supplied with the probe. Five μl of the probe solution was placed on the targeted area of the sample slides and covered with a 12 mm round silanized coverslip (Ingen laboratories, USA) at 76° C. and denatured for six minutes at that temperature. The slide-filled aluminum slide tray was then transferred into an HybBox (Ingen Laboratories, USA), covered and allowed to hybridize overnight in the box.
All samples obtained from the cancerous patients (samples 1-15) were analyzed with each of the six probes used, each in the absence as well as in the presence of AZA. Out of the non-cancerous samples grown without AZA 41 (samples 16-56) were analyzed with the AML1 and TP53 probes, 30 (samples 16-45) with the CEN17 probe and 15 (samples 16-30) with each of the other three probes (SNRPN, RB1 and CEN15).
(§5) Slides were analyzed blindly on an Olympus BH2 fluorescent microscope, using a triple band-pass filter (Chroma technology). For the replication assay (Boogs and Chinault, 1997) at least 100 cells, containing two well-defined hybridization signals were scored from each sample, for each probe and for each treatment, following one-color FISH. […]

[3] = test system: PHA-stimulated lymphocytes of non-cancerous individuals; test: FISH replication assay, lymphocytes of non-cancerous individuals grown with 5-azacytidine (Example 6); details: for percentage of SD cells, mean value in AZA-exposed non-cancerous samples: samples 16-30, 72 hours, mean ± standard deviation
Procedure: as §1, §2, §3, §4
Each of the 15 samples derived from the noncancerous subjects (samples 16-30) grown in the presence of AZA was also analyzed with each of the six probes used.
as §5, with “FISH. The structure of each signal, either singlet (S), representing a non-replicated sequence, or doublet (D), disclosing a replicated sequence, was noted FIG. 1.” for “FISH.”

**Q.** How did the “frequency of cells showing a loss of one copy of AML1, TP53, CMYC, RB1, D15Z1 and SNRPN” value [1] turn out when `Nc1ncn([C@@H]2O[C@H](CO)[C@@H](O)[C@H]2O)c(=O)n1` [AZA, 5-azacytidine] was run?
**A.** Neither the CAP samples nor the BPH samples were affected

**Q.** And the “percentage of SD cells following exposure to AZA, mean value” ([2]; AML1 locus, 10^-7M AZA)?
**A.** 25.3±3.7%

**Q.** What about the “percentage of SD cells following exposure to AZA, mean value” ([2]; CEN15 locus, 10^-7M AZA) of the same compound?
**A.** 21.9±2.3%

**Q.** And the “percentage of SD cells following exposure to AZA, mean value” ([2]; CEN17 locus, 10^-7M AZA)?
**A.** 22.7±3.4%

**Q.** And the “percentage of SD cells following exposure to AZA, mean value” ([2]; RB1 locus, 10^-7M AZA)?
**A.** 22.4±2.5%

**Q.** What about the “percentage of SD cells following exposure to AZA, range” value ([2]; TP53, AML1, RB1, CEN17 and CEN15, patients' samples, 10^-7M AZA) of the same compound?
**A.** 15-28%

**Q.** And the “percentage of SD cells following exposure to AZA, mean value” ([2]; TP53 locus, 10^-7M AZA)?
**A.** 21.7±4.4%

**Q.** What about the cancer-induced allele-specific replication ([2]; all five loci tested (TP53, RB1, AML1, satellited sequences of chromosomes 15 and 17), blood cells of hematological patients) of the same compound?
**A.** reversed to the normal

**Q.** What about the “combined SD frequency (mean of TP53, AML1, RB1, CEN17 and CEN15) per sample, range” value ([2]; patients' samples exposed to AZA) of the same compound?
**A.** 19.8-26.2%

**Q.** And the “percentage of SD cells, mean value in AZA-exposed non-cancerous samples” value ([3]; AML1 locus, 10^-7M AZA)?
**A.** 21.5±4.5%

**Q.** What about the “percentage of SD cells, mean value in AZA-exposed non-cancerous samples” value ([3]; CEN15 locus, 10^-7M AZA) of the same compound?
**A.** 20.9±3.8%

**Q.** What about the “percentage of SD cells, mean value in AZA-exposed non-cancerous samples” value ([3]; CEN17 locus, 10^-7M AZA) of the same compound?
**A.** 20.9±5.0%

**Q.** What about the “percentage of SD cells, mean value in AZA-exposed non-cancerous samples” value ([3]; RB1 locus, 10^-7M AZA) of the same compound?
**A.** 22.3±3.9%

**Q.** And the “percentage of SD cells in AZA-exposed non-cancerous samples, range” value ([3]; TP53, AML1, RB1, CEN17 and CEN15, 10^-7M AZA)?
**A.** 12-29%

**Q.** And the “percentage of SD cells, mean value in AZA-exposed non-cancerous samples” value ([3]; TP53 locus, 10^-7M AZA)?
**A.** 20.4±4.4%

**Q.** And the “combined SD frequency (mean of TP53, AML1, RB1, CEN17 and CEN15) per sample, range” value ([3]; non-cancerous samples exposed to AZA)?
**A.** 16.7-24.6%
